# From patent publication US20070134733A1, “Raman signature probes and their use in the detection and imaging of molecular processes and structures” (Parallax Biosystems, Inc., priority 2003, published 2007)
# Biological target: T1, NADH-dependent enoyl acyl carrier reductase (FabI) (Escherichia coli, UniProt P0AEK4)
# T1 construct: made in house; host or cells: recombinant bacteria (strain from Dr. Charles Rock, St. Jude Children's Research Hospital)
# Assay: FabI enzyme inhibition assay (NADH consumption, absorbance at 340 nm)
# Assay type: biochemical, bacteria
# Settings: purified HIS-tagged FabI enzyme, NADH and substrate (e.g. Malonyl CoA or Crotonyl CoA)
# Excerpt: Prior to using the potential RSP compounds as probes to detect bacteria the modified compounds will be tested for their ability to inhibit FabI. As shown with numerous studies that have explored the structure activity relationship of other FabI inhibitor analogs, there is a good correlation between the ability of a compound to inhibit the enzyme and its affinity towards the enzyme (Seefeld et al., Bioorg. Med. Chem. Lett. 11 (2001) 2061-2065). Recombinant bacteria expressing a HIS-tagged FabI protein are available from Dr. Charles Rock at St. Jude Children's Research Hospital in Memphis Tenn. The overexpressed protein is readily purified as a bioactive enzyme using conventional Ni^2+ chromatographic methods (Heath & Rock, J. Biol. Chem. 270 (1995) 26538-26542). Enzyme assays will be performed as described by Bergler et al. (J. Biol. Chem. 269 (1994) 5493-5496). Briefly, purified HIS-tagged FabI enzyme is added to a reaction containing NADH and an appropriate substrate (e.g. Malonyl CoA or Crotonyl CoA). The reductase activity is assayed by monitoring the decrease in absorbance at 340 nm due to the consumption of NADH. The inhibitory activity of all RSPs will be compared with Compound 1.
# T1 sequence (P0AEK4 whole entry): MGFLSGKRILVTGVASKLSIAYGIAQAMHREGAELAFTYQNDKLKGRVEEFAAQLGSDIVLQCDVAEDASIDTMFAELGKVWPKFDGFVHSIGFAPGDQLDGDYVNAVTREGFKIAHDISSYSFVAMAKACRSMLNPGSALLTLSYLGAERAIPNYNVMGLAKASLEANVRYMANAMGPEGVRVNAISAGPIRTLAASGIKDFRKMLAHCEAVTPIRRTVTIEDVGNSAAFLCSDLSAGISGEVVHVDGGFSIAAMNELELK
row,Structure (SMILES),EC50
1,"Nc1ccc(Cn2c3c(c4ccccc42)CCN(C(=O)c2ccc(O)cc2)C3)cc1 [Compound 1, reference compound]",0.67 µM
2,N#Cc1ccc(Cn2c3c(c4ccccc42)CCN(C(=O)c2ccc(Cl)cc2)C3)cc1 [Compound 1A],2.52 µM
3,[2H]c1c([2H])c([2H])c(C(=O)N2CCc3c(n(Cc4ccc(F)cc4)c4ccccc34)C2)c([2H])c1[2H] [Compound 1B],1.5 µM
4,N#Cc1ccc(Cn2c3c(c4ccccc42)CCN(C(=O)c2ccc(Br)cc2)C3)cc1 [Compound 1C],2.53 µM
5,CC#CCn1c2c(c3ccccc31)CCN(C(=O)c1ccc(Cl)cc1)C2 [Compound 1D],6.01 µM
6,[2H]C([2H])([2H])C([2H])([2H])n1c2c(c3ccccc31)CCN(C(=O)c1ccc(Cl)cc1)C2 [Compound 1E],7.83 µM
